The test deals with Protease (Human immunodeficiency virus 1) (UniProt Q9YQ12). In words: Inhibition of HIV1 recombinant protease expressed in Escherichia coli DH5alpha at 17.9 ug/mL after 2 hrs by HPLC assay.
Sequence of Protease (Human immunodeficiency virus 1) (Q9YQ12 as listed by the source): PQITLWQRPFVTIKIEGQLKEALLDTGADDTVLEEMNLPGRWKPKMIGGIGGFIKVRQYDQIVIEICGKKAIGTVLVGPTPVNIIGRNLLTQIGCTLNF
Usually inhibition stands for the relative decrease from the control value, in per cent. As for `C[C@@H]1CC[C@]2(C(=O)O)CC[C@]3(C)C(=CC[C@@H]4[C@@]5(C)C[C@@H](O)[C@H](O)C(C)(C)[C@@H]5CC[C@]43C)[C@@H]2[C@]1(C)O`, the inhibition was 49%.

Regarding `C[C@@H]1CC[C@]2(C(=O)O)CC[C@]3(C)C(=CC[C@@H]4[C@@]5(C)C[C@@H](O)C(=O)C(C)(C)[C@@H]5CC[C@]43C)[C@@H]2[C@]1(C)O`, the inhibition amounted to 72%.

`C[C@@H]1CC[C@]2(C(=O)O)CC[C@]3(C)C(=CC[C@@H]4[C@@]5(C)CC[C@@H](O)C(C)(C)[C@@H]5CC[C@]43C)[C@@H]2[C@]1(C)O`: the inhibition was 42%. As for `C[C@H]1[C@H](C)CC[C@]2(C(=O)O)CC[C@]3(C)C(=CC[C@@H]4[C@@]5(C)CC[C@H](O)C(C)(C)[C@@H]5CC[C@]43C)[C@H]12`, the inhibition was 85%. `CC1(C)CC[C@]2(C(=O)O)CC[C@]3(C)C(=CC[C@@H]4[C@@]5(C)C[C@@H](O)[C@H](O)C(C)(C)[C@@H]5CC[C@]43C)[C@@H]2C1`: the inhibition was 100%. For `C[C@@H]1CC[C@]2(C(=O)O)CC[C@]3(C)C(=CC[C@@H]4[C@@]5(C)C[C@@H](O)[C@@H](O)C(C)(C)[C@@H]5CC[C@]43C)[C@@H]2[C@]1(C)O`, the inhibition worked out at 0%.
